Molecules are shown by their SMILES.

This note sets out measurements from the OPERA property sets (Mansouri et al. 2018).

Details in one series: not given
The term boiling point denotes the temperature at which the vapour pressure of the liquid equals the pressure above it. As usually defined, the melting point is the temperature of the solid-liquid transition. Take `Cc1ccc(C)c(N)c1`: the boiling point was determined as 214 °C, the log10 vapour pressure (mmHg) was -0.824, the melting point turned out to be 15.5 °C and the ready biodegradability entry was “not readily biodegradable”.
In turn, `CCCC(=O)OCc1ccco1` yielded a boiling point of 212 °C.
For `C/C(=N/NC(=O)c1ccncc1)c1ccco1`, the melting point was 202 °C.
The compound `Cc1csc(S)n1` came in with a melting point of 89.3 °C.
`OCC(F)(F)C(F)(F)F` had a boiling point of 82 °C, a log10 Henry constant (atm·m³/mol) of -4.65 and a log10 vapour pressure (mmHg) of 1.66.
Take `C=Cc1ccc(CCl)cc1`: the ready biodegradability result is reported as “not readily biodegradable”.
Compound `CCCCOCc1ccccc1` gave a boiling point of 223 °C.
Take `c1ccc(-c2nnc(-c3ccccn3)nc2-c2ccccc2)cc1`: the melting point is 192 °C.
As for `CC(C)=CCC1=C(O)C(=O)c2ccccc2C1=O`, the melting point worked out at 140 °C.
As to `O=C(O)CSc1ncccn1`, the ready biodegradability entry is reported as “readily biodegradable”.
For the compound `CCOC(=O)C=Cc1ccccc1`, the boiling point came out at 271 °C, the log10 vapour pressure (mmHg) is -2.49 and the melting point was found to be 7 °C.
`Brc1cccc(I)c1` came in with a boiling point of 252 °C and a melting point of -9.3 °C.
In the case of `CC(C)CCC(CO)C(C)C` (stereo unspecified), the boiling point was 211 °C.
In turn, `Cc1cc(C)c(C=O)c(C)c1` had a boiling point of 238 °C and a melting point of 14 °C.
Compound `COC(=O)c1cccc2ccccc12` gave a melting point of 59.5 °C.
In turn, `O=C(O)CCc1ccco1` showed a boiling point of 229 °C and a melting point of 58 °C.
For `CCc1ccsc1` the same measures were 136 °C and -89.1 °C.
The compound `CCOC(=O)C(Cl)(Cl)Cl` gave a boiling point of 168 °C and a log10 vapour pressure (mmHg) of 0.581.
`Cc1ccc2cc3ccc4ccccc4c3cc2c1` showed a melting point of 183 °C.
Take `CC(C)c1cccc(C(C)C)c1N`: the boiling point was 257 °C and the melting point was -45 °C.
For the compound `Cc1ccccc1CC#N`, the boiling point amounted to 244 °C.
The compound `CC(=O)NC(N)=O` had a melting point of 218 °C.
Compound `O[C@H]1[C@H](O)[C@@H](O)[C@H](O)[C@@H](O)[C@H]1O` (racemic) returned a melting point of 237 °C.
On to `CCCCC(CC)COC(=O)CCCCCCCC(=O)OCC(CC)CCCC` (stereo unspecified), for which the melting point was -78 °C and the ready biodegradability entry was “readily biodegradable”.
`C[Si](C)(C)O[Si](C)(O[Si](C)(C)C)O[Si](C)(C)C` returned a log10 vapour pressure (mmHg) of -1.4.
As for `CCCCC(CC)(CO)CO`, the boiling point was determined as 262 °C, the log10 vapour pressure (mmHg) was -4, the melting point was 43.8 °C and the ready biodegradability result is reported as “not readily biodegradable”.
In turn, `CN(C)C(=O)CCCOC(=O)c1ccccc1` came in with a melting point of 40.5 °C.
Take `CC(C)=CC(=O)O`: the boiling point was determined as 197 °C and the melting point turned out to be 69.5 °C.
For the compound `O=C1c2ccccc2C(=O)c2c(Br)cccc21`, the melting point was 186 °C.
Still for that read-out and setting: as for `CCCCCCOc1ccccc1C(N)=O`, the figure is 71 °C; as for `C[C@]12CC[C@@H](O)C[C@@H]1CC[C@@H]1[C@@H]2CC[C@]2(C)C=CC[C@@H]12`, 143 °C.
Regarding `CCCCCCCCCCCCCC(=O)N(CCO)CCO`, the ready biodegradability entry was “readily biodegradable”.
Take `C[C@H](Oc1ccccc1)C(=O)O`: the boiling point was 266 °C and the melting point worked out at 118 °C.
`CC(=O)CC(c1ccc([N+](=O)[O-])cc1)c1c(O)c2ccccc2oc1=O` (stereo unspecified) displayed a melting point of 197 °C.
For `O=C(O)c1ccc(C(=O)O)c(C(=O)O)c1`, the melting point was determined as 219 °C.
The compound `C[C@@H]1CCCCN1` returned a boiling point of 120 °C and a log10 vapour pressure (mmHg) of 1.29.
The compound `CCCCC(CCCC)CCCC` registered a boiling point of 218 °C.
In turn, `CCOC(=O)C(F)F` had a boiling point of 100 °C.
Take `CN`: the boiling point was -6.3 °C, the log10 Henry constant (atm·m³/mol) is -4.95, the log10 Koa was 1.9 and the log10 vapour pressure (mmHg) came to 3.42. The ready biodegradability entry is “readily biodegradable”.
With `N#Cc1ccccc1CCl`, the boiling point is 252 °C and the melting point turned out to be 61 °C.
For `CC(C)(C(=O)O)n1nc2ccccc2n1`, the melting point turned out to be 152 °C.
`Cc1ccc(Br)s1` returned a boiling point of 178 °C.
`C[Si](C)(C)OS(=O)(=O)C(F)(F)F` showed a boiling point of 140 °C.
Consider `O=C=C=C=O`, for which the boiling point came to 6.8 °C and the melting point is -107 °C.
Take `COc1ccc(O)c([N+](=O)[O-])c1`: the log10 Henry constant (atm·m³/mol) is -5.73 and the melting point is 79 °C.
On to `Sc1nc2ccccc2s1`, for which the log10 Koc (L/kg) is 2.25, the melting point came out at 181 °C and the ready biodegradability result was “readily biodegradable”.
Regarding `CC(C)(C)NCCO`, the boiling point turned out to be 176 °C, the melting point came to 44 °C and the ready biodegradability entry is on record as “not readily biodegradable”.
With `N#CCCCCCN`, the boiling point was 236 °C, the log10 vapour pressure (mmHg) is -0.745 and the melting point was -31.4 °C.
The compound `COCC(=O)c1ccccc1` yielded a boiling point of 245 °C and a melting point of 8 °C.
For `c1cc(-c2ncco2)cc(-c2ncco2)c1`, the ready biodegradability result is given as “not readily biodegradable”.
In the case of `Nn1cnnc1`, the melting point was 82.5 °C.
Take `O=C(O)C(Br)(Br)Br`: the log10 Henry constant (atm·m³/mol) was -8.48 and the melting point turned out to be 132 °C.
Compound `C=CCC(C(=O)OCC)C(=O)OCC` returned a boiling point of 222 °C.
In the case of `C[C@]12C/C(=C/O)C(=O)C[C@@H]1CC[C@@H]1[C@@H]2CC[C@@]2(C)[C@H]1CC[C@]2(C)O`, the melting point is 179 °C.
Compound `ClC1(Cl)C2(Cl)C3(Cl)C4(Cl)C(Cl)(Cl)C5(Cl)C3(Cl)C1(Cl)C5(Cl)C24Cl` (stereo unspecified) returned a log10 Henry constant (atm·m³/mol) of -3.09, a log10 Koc (L/kg) of 6 and a log10 vapour pressure (mmHg) of -6.1.
In turn, `Cc1cccc2c1CCCC2C` (stereo unspecified) came in with a boiling point of 239 °C.
In turn, `Fc1ccc(Br)cc1` came in with a boiling point of 152 °C and a melting point of -17.4 °C.
Regarding `CCCCCCCCCCOC(=O)CCCCC(=O)OCCCCCCCC`, the melting point is -50 °C.
Compound `O=C(O)Cc1cc(O)ccc1O` gave a melting point of 153 °C.
In turn, `CC[C@H]1CC[C@H](C)C1` gave a boiling point of 121 °C and a melting point of -108 °C.
For `CC1(C)C2CCC1(C)C(O)C2` (stereo unspecified), the ready biodegradability result was “readily biodegradable”.
As for `O=[N+]([O-])c1ccc(Oc2ccccc2)c([N+](=O)[O-])c1`, the melting point was determined as 71 °C.
`C=C[Si](C)(C)OCC` returned a boiling point of 99 °C.
For the compound `Cc1cc(C)nc(N)n1`, the melting point was 152 °C.
`C=CSC=C` displayed a boiling point of 84 °C and a melting point of 20 °C.
Compound `COc1ccc(Br)cc1` had a boiling point of 215 °C, a log10 vapour pressure (mmHg) of -0.692 and a melting point of 13.5 °C.
The corresponding values for `CCCCOC(=O)CCC` are 166 °C, 0.258 and -91.5 °C.
As for `CS(=O)(=O)NC(=O)c1cc(Oc2ccc(C(F)(F)F)cc2Cl)ccc1[N+](=O)[O-]`, the log10 Koc (L/kg) worked out at 1.78 and the melting point amounted to 220 °C.
For `C1=CCC2CC2C1` (stereo unspecified), the boiling point amounted to 125 °C and the log10 vapour pressure (mmHg) was determined as 1.36.
As to `CC(=O)Nc1cccc(O)c1`, the melting point is 147 °C.
As for `CCCCCCC(O)CCC` (stereo unspecified), the boiling point was found to be 210 °C and the melting point was -11 °C.
Consider `CC(Cc1ccccc1)NC(C#N)c1ccccc1` (stereo unspecified), for which the melting point was 86 °C.
Consider `O=C(CCCN1CCC(O)(c2ccc(Cl)cc2)CC1)c1ccc(F)cc1`, for which the melting point was determined as 152 °C.
On the same count and under the same terms, as for `O=C1OC2(c3ccccc31)c1cc(Br)c(O)c(Br)c1Oc1c2cc(Br)c(O)c1Br`, the figure is 295 °C.

The series is the same for the next values; noted with them: fish.
`Cc1ccc(C)c(N)c1`: the log10 BCF came out at 0.58 and the log10 biotransformation half-life (days) was -0.99.
As for `Sc1nc2ccccc2s1`, the log10 BCF amounted to 0.9.
For the compound `ClC1(Cl)C2(Cl)C3(Cl)C4(Cl)C(Cl)(Cl)C5(Cl)C3(Cl)C1(Cl)C5(Cl)C24Cl` (stereo unspecified), the log10 BCF stood at 4.31 and the log10 biotransformation half-life (days) was 1.8.
